In article PMC4938410 (PLoS ONE, 2016):

Assays:
BAS0540 = target: T1, BAS0540 (Bacillus anthracis, UniProt A0A6L7HQL1); settings: 60 mM donor, 20 mM MgCl2, pH 7.5, 37 °C; covalent phosphorylation, probable acceptor Asp50
T1 construct: gene GBAA_0571

BAS0541T = target: T2, BAS0541T (Bacillus anthracis, UniProt A0A384L3H6); settings: labelled compound ([gamma-32P]ATP mixed with 2.5 uM ATP), 4 mM MgCl2, pH 8, 37 °C
T2 construct: gene GBAA_0572
T2 sequence (A0A384L3H6 190-416 limits assumed): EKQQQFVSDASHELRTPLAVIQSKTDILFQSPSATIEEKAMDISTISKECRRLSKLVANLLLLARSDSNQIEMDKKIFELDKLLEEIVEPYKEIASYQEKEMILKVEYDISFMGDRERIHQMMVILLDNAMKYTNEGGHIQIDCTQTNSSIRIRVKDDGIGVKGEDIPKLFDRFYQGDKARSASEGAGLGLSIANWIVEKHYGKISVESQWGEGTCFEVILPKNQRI

T1 sequence (A0A6L7HQL1 1-223 limits assumed): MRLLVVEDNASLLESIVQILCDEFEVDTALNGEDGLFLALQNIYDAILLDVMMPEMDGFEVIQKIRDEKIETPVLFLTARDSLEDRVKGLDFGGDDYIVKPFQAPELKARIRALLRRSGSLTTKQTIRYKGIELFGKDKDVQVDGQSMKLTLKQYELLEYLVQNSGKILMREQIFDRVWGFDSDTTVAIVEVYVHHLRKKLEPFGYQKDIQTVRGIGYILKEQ

Row | Structure (SMILES) | phosphorylation by small-molecule donor, native PAGE, Coomassie (BAS0540) | autophosphorylation, SDS-PAGE autoradiography (BAS0541T)
1 | NC(=O)OP(=O)(O)O [carbamoyl phosphate] | physiologically relevant small molecule phosphodonors, AcP and CP | 
2 | CC(=O)OP(=O)(O)O [acetyl phosphate] | physiologically relevant small molecule phosphodonors, AcP and CP | 
3 | Nc1ncnc2c1ncn2[C@@H]1O[C@H](COP(=O)(O)OP(=O)(O)OP(=O)(O)O)[C@@H](O)[C@H]1O [ATP] |  | Autophosphorylation was assayed by incubating the purified BAS0541T with radiolabelled ATP mixture
